Among the data in ChEMBL document CHEMBL2434920, “Synthesis, characterization and in vitro biological evaluation of some novel 1,3,5-triazine-Schiff base conjugates as potential antimycobacterial agents” (Bioorg Med Chem Lett, 2013) are IC50 and MIC values, retold here.

Test [1] concerns Vero. Description: Cytotoxicity against African green monkey Vero cells assessed as cell viability after 72 hrs by MTT assay. In kind it is cell-based. Particulars: Chlorocebus sabaeus. (In general: Formazan colour is commonly taken as a measure of viable cells.)
The subject of test [2] is Mycobacterium tuberculosis. In words: Antimycobacterial activity against Mycobacterium tuberculosis H37Rv assessed as growth inhibition after 5 days by microplate Alamar Blue assay. In kind it is functional. The following applies: 120 h.

In brackets after ≈: the same amount, converted by molar mass.

As a reminder, the IC50 is the concentration at which inhibition is half-maximal. What is called MIC is the lowest concentration found to suppress growth.

Consider `COc1cccc(/C(C)=N/c2nc(C)nc(OC)n2)c1`, for which, in test [1], the IC50 is greater than 50 µg/mL. Further, the MIC in test [2] amounted to 12.5 µg/mL (≈ 45.9 µM).

As for `COc1nc(C)nc(/N=C/c2c3ccccc3cc3ccccc23)n1`, in test [2], the minimal inhibitory concentration (MIC) was 50 µg/mL (≈ 152 µM).

For `CCOc1cc(/C=N/c2nc(C)nc(OC)n2)ccc1O`, the concentration for half-maximal inhibition (IC50) in test [1] was greater than 50 µg/mL. Moreover, the minimum inhibitory concentration (MIC) in test [2] was 25 µg/mL (≈ 86.7 µM).

As to `COc1nc(C)nc(/N=C/c2ccc(Br)cc2)n1`, the 50% inhibitory concentration (IC50) in test [1] is greater than 50 µg/mL. Besides, in test [2], the MIC worked out at 25 µg/mL (≈ 81.4 µM).

As to `COc1nc(C)nc(/N=C/c2cc(Cl)cc(Br)c2O)n1`, the 50% inhibitory concentration (IC50) in test [1] was greater than 50 µg/mL. The MIC in test [2] was determined as 6.25 µg/mL (≈ 17.5 µM).

Regarding `COc1nc(C)nc(/N=C(\C)c2ccc([N+](=O)[O-])cc2)n1`, in test [1], the IC50 is greater than 50 µg/mL. Moreover, the MIC in test [2] stood at 12.5 µg/mL (≈ 43.5 µM).

In the case of `COc1nc(C)nc(/N=C(\C)c2ccc(O)cc2)n1`, the half-inhibitory concentration (IC50) in test [1] was greater than 50 µg/mL. Besides, the MIC in test [2] came to 25 µg/mL (≈ 96.8 µM).

Take `CN[C@@H]1[C@H](O[C@H]2[C@H](O[C@H]3[C@H](O)[C@@H](O)[C@H](N=C(N)N)[C@@H](O)[C@@H]3N=C(N)N)O[C@@H](C)[C@]2(O)C=O)O[C@@H](CO)[C@H](O)[C@H]1O` [STREPTOMYCIN]: in test [1], the concentration for half-maximal inhibition (IC50) was greater than 50 µg/mL. Moreover, the MIC in test [2] amounted to 6.25 µg/mL (≈ 10.7 µM).

Turning to `COc1nc(C)nc(/N=C/c2ccc(Cl)cc2Cl)n1`, in test [1], the IC50 was greater than 50 µg/mL. Besides, in test [2], the MIC stood at 12.5 µg/mL (≈ 42.1 µM).

As to `COc1nc(C)nc(/N=C(\C)c2cccnc2)n1`, the MIC in test [2] was determined as 50 µg/mL (≈ 206 µM).

Consider `COc1nc(C)nc(/N=C(\C)c2ccccc2O)n1`, for which the IC50 in test [1] is greater than 50 µg/mL. Besides, the MIC in test [2] came out at 25 µg/mL (≈ 96.8 µM).

`COc1nc(C)nc(/N=C(\C)c2cccs2)n1`: the IC50 in test [1] was greater than 50 µg/mL. The minimum inhibitory concentration (MIC) in test [2] is 25 µg/mL (≈ 101 µM).

For `COc1nc(C)nc(/N=C/c2cccc([N+](=O)[O-])c2)n1`, the minimum inhibitory concentration (MIC) in test [2] is 50 µg/mL (≈ 183 µM).

On to `COc1nc(C)nc(/N=C(\C)c2ccccc2)n1`, for which the MIC in test [2] is 50 µg/mL (≈ 206 µM).

Consider `COc1nc(C)nc(/N=C/c2cccc(Br)c2)n1`, for which the IC50 in test [1] is greater than 50 µg/mL. Further, the MIC in test [2] was 12.5 µg/mL (≈ 40.7 µM).

For the compound `COc1nc(C)nc(/N=C(\C)c2cccc([N+](=O)[O-])c2)n1`, the IC50 in test [1] is greater than 50 µg/mL. Further, the MIC in test [2] was 25 µg/mL (≈ 87 µM).

As for `COc1ccc(/C(C)=N/c2nc(C)nc(OC)n2)cc1`, in test [2], the MIC turned out to be 50 µg/mL (≈ 184 µM).

As to `COc1nc(C)nc(/N=C(\C)c2ccc(O)cc2O)n1`, the IC50 in test [1] was greater than 50 µg/mL. In test [2], the MIC is 25 µg/mL (≈ 91.1 µM).

As to `NC(=O)c1cnccn1` [PYRAZINAMIDE], the IC50 in test [1] was greater than 50 µg/mL. Moreover, the MIC in test [2] turned out to be 3.12 µg/mL (≈ 25.4 µM).

For the compound `COc1nc(C)nc(/N=C/c2cc(OC)c(OC)c(OC)c2)n1`, the IC50 in test [1] is greater than 50 µg/mL. For the same compound, the minimal inhibitory concentration (MIC) in test [2] was determined as 3.12 µg/mL (≈ 9.82 µM).

For `COc1nc(C)nc(/N=C/c2ccccc2)n1`, in test [2], the minimal inhibitory concentration (MIC) is 50 µg/mL (≈ 219 µM).

Take `COc1nc(C)nc(/N=C/c2ccc(N(C)C)cc2)n1`: the IC50 in test [1] was greater than 50 µg/mL. Besides, the MIC in test [2] came out at 25 µg/mL (≈ 92.1 µM).

Consider `COc1nc(C)nc(/N=C(\C)c2cc(O)ccc2O)n1`, for which, in test [1], the IC50 was greater than 50 µg/mL. In test [2], the MIC came out at 6.25 µg/mL (≈ 22.8 µM).

Consider `COc1nc(C)nc(/N=C(\C)c2ccc3ccccc3c2)n1`, for which the minimum inhibitory concentration (MIC) in test [2] amounted to 50 µg/mL (≈ 171 µM).

For `COc1nc(C)nc(/N=C/c2ccc(C)cc2)n1`, the half-maximal inhibitory concentration (IC50) in test [1] was greater than 50 µg/mL. Besides, the minimal inhibitory concentration (MIC) in test [2] was 25 µg/mL (≈ 103 µM).

Take `COc1nc(C)nc(/N=C(\C)c2cccc(C)c2O)n1`: the minimum inhibitory concentration (MIC) in test [2] was 50 µg/mL (≈ 184 µM).

As for `COc1nc(C)nc(/N=C/c2ccc[nH]2)n1`, the IC50 in test [1] is greater than 50 µg/mL. In addition, in test [2], the MIC is 25 µg/mL (≈ 115 µM).

On to `COc1nc(C)nc(/N=C(\C)c2cc(C)ccc2O)n1`, for which the MIC in test [2] was found to be 50 µg/mL (≈ 184 µM).

Consider `CC[C@@H](CO)NCCN[C@@H](CC)CO` [ETHAMBUTOL], for which the IC50 in test [1] is greater than 50 µg/mL. The MIC in test [2] amounted to 3.12 µg/mL (≈ 15.3 µM).

Regarding `COc1nc(C)nc(/N=C(\C)c2ccc(C)cc2)n1`, in test [1], the IC50 is greater than 50 µg/mL. In test [2], the minimum inhibitory concentration (MIC) amounted to 12.5 µg/mL (≈ 48.8 µM).

For `COc1nc(C)nc(/N=C/c2cccnc2)n1`, the MIC in test [2] was found to be 50 µg/mL (≈ 218 µM).

Take `C=CCOc1ccc(/C=N/c2nc(C)nc(OC)n2)cc1`: in test [1], the 50% inhibitory concentration (IC50) was greater than 50 µg/mL. The MIC in test [2] stood at 25 µg/mL (≈ 87.9 µM).

For `COc1nc(C)nc(/N=C/c2c[nH]c3ccccc23)n1`, the MIC in test [2] is 50 µg/mL (≈ 187 µM).

Consider `COc1nc(C)nc(/N=C(\C)c2ccc3c(c2)Cc2ccccc2-3)n1`, for which the MIC in test [2] came out at 50 µg/mL (≈ 151 µM).

Turning to `COc1nc(C)nc(/N=C/c2ccc(Cl)cc2)n1`, the 50% inhibitory concentration (IC50) in test [1] was greater than 50 µg/mL. The MIC in test [2] stood at 12.5 µg/mL (≈ 47.6 µM).
